In patent US9957332B2, “Compositions and methods for treating cocaine-related disorders” (University of Cincinnati, priority 2006, dated 2018):

How the values were obtained:
[1] = 2E2 in vivo pharmacokinetics, blood mAb by ELISA; conditions: mice
Experimental: Then at varying times, to obtain blood samples for mAb quantification, the mice are anesthetized using isoflurane and a sterile 27-gauge hypodermic needle or, alternatively, a sterile scalpel blade is used to puncture or make a small cut in a tail vein and 10 μl of blood is collected using a heparinized capillary pipette tip. The blood is immediately placed in a 1.5 ml polypropylene microcentrifuge tube containing 40 μl of 0.1 M sodium citrate/0.1% sodium azide pH 4.75. These samples are then rapidly placed on ice and then stored at 4° C. until use.
Briefly, the conjugate benzoylecgonine-ovalbumin (3 μg/ml, 100 μl/well) in 1 mM EGTA pH 7.4 is adsorbed onto PVC 96-well microtiter plates for 1 hr. The plates are then washed 3 times with, and all wells exposed for 10 min to, 0.5% BSA in TBS (10 mM Tris, 140 mM NaCl and 0.02% NaN3, pH 6.9) in order to block non-specific protein binding. The second layer, 100 μl/well of the blood samples diluted (1:500) into BSA-TBS, is added and the sample is incubated for 2 hr. […] The plates are washed with a Solution A, containing 0.5% BSA, 10 mM sodium phosphate, 145 mM NaCl, 1.5 mM MgCl2, 0.05% triton X-100 and 0.02% NaN3, pH 7.2. Then 50 μl/well of affinity-purified biotinylated goat anti-human IgG diluted 1:500 in Solution A is added and incubated for 1 hr. After washing, 50 μl/well of streptavidin-alkaline phosphatase, diluted (1:200) in Solution A, is added, incubated for 1 hr and removed. Then 50 μl/well of the colorimetric reaction mixture, comprised of the substrate para-nitrophenylphosphate (1 mg/ml) in substrate buffer (50 mM Na2CO3, 50 mM NaHCO3 1 mM MgCl2 at pH 9.8), is added. After 6-8 min the reaction is stopped with 1M sodium hydroxide (50 μl/well). […] The reaction endpoint is measured with an ELISA reader at a wavelength of 405 nm. […]
The program provides Akaike Information Criterion (AIC) and Schwartz Bayesian Criterion (SBC) measures of “goodness of fit” of the data to the one or two compartment pharmacokinetic models that are used. Data are first analyzed according to a single compartment pharmacokinetic model.

[2] = Radioligand binding assay using antibody and [3H]-cocaine; conditions: [3H]-cocaine radioligand binding; read-out: dissociation constant (Kd) for cocaine
Text: (§1) In another embodiment, an antibody binds cocaine or a derivative thereof. […] Other examples of cocaine derivatives include: (−) cocaine; cocaine propyl ester; RTI-128; RTI-66; RTI-160; RTI-192; m-hydroxycocaine; WIN 35,065-2; WIN 35,428; RTI-31; RTI-32; RTI-55; RTI-111; m-hydroxybenzoylecgonine; p-hydroxybenzoylecgonine; RTI-113; tropine; benztropine; 4′,4″-difluoro-3α-diphenylmethoxytropane; hyoscyamine-N-oxide; methylanisotropine; tropisetronmethiodide; anisodine; scopotamine; scopotamine-N-oxide; methylscopolamine; N-butylscopolamine; (−) pseudococaine; (+) cocaine; norcaine; benzoylnorecgonine; (+) pseudococaine; ecgonidine; exo-6-hydroxytropinone; and methylcocaethylene.

[3] = Effect of 2E2 on cocaine metabolite concentrations in plasma and brain; assay type: in vivo; conditions: mice
[4] = Effect of infused mAbs on plasma and brain cocaine concentrations and pharmacokinetics; assay type: in vivo, mice
[5] = Cocaine pharmacokinetics in plasma and brain (GC/MS), absence of mAb; conditions: for mean metabolite concentration in brain / mean metabolite concentration in plasma: 5 min after cocaine injection
Experimental: Jugular vein catheterized male Swiss-Webster mice (22-28 g at the start of the studies) are purchased. Mice are housed individually with free access to food and water and kept on a 12 h light/dark cycle.
The antibody (3-5 mg/ml) in phosphate-buffered saline (PBS) or vehicle (PBS) is infused at a rate of approximately 0.35 ml/min for up to two min, depending on the antibody concentration and the body weight of the animal, with the animal held under mild restraint. One hour after completion of the infusion of mAb, cocaine HCl (0.56 mg/kg) plus heparin (400 units/kg) is injected intravenously through the same catheter at a volume of 4.0 ml/kg body weight. At most sampling times, sodium pentobarbital (45 mg/kg, i.p) is administered three minutes prior to sacrificing the animal. For the 0.75 min time point the cocaine is injected into anesthetized mice. At the designated times after the injection of cocaine, anesthetized mice are sacrificed by decapitation and trunk blood (typically 0.8-1.2 ml) is collected in a 1.5 ml polypropylene microcentrifuge tube containing 11.2 μl heparin (1.0 unit/μl) and NaF (16 mg/0.8 ml of blood) to inhibit, respectively, blood coagulation and enzymatic hydrolysis of cocaine. The blood samples are centrifuged at 5,000×g for 3 min, then the plasma (typically 0.4-0.8 ml) is carefully separated from packed red blood cells, placed into sterile 1.5 ml Eppendorf microcentrifuge tubes, rapidly frozen on dry ice and then stored at −80° C. until analysis.
The whole brain is quickly removed from the decapitated mice, surface blood is blotted away, and the brain is placed in a polypropylene tube, rapidly frozen on dry ice and then stored at −80° C. until analysis. For analysis, brains are weighed and cold deionized, distilled water added to produce a total volume of 1 ml, then homogenized and centrifuged at 13,000 rpm for 45 min at 4° C. The resulting supernatants (0.4-0.6 ml) are collected into sterile polypropylene microcentrifuge tubes and an aliquot (0.05-0.40 ml) is processed for cocaine/metabolite analysis by GC/MS and hemoglobin content. Any remaining sample is stored at −80° C.
In order to determine in vivo concentrations of cocaine and its metabolites BE and EME, following the i.v. injection of cocaine, 100-400 μl samples of heparinized/NaF treated plasma and 400 μl samples of brain homogenates obtained from cocaine-treated animals are added to 2 ml of 0.1 M Na phosphate buffer, pH 6.0. This is followed by the addition of 5% trichloroacetic acid at a volume equal to that of the experimental sample (100-400 μl). These mixtures are shaken for 20 minutes and then centrifuged for 15 min at 7000 rpm, all at room temperature, in order to precipitate the denatured protein. The supernatants are collected and adjusted to pH 5.4 with 10 M NaOH. Then to serve as internal standards for establishing the identification of cocaine and its metabolites as well as for normalization of the recovery of cocaine/metabolites from the mouse samples, 50 μl of a sample containing deuterated (D3) cocaine-D3, BE-D3 and EME-D3 (each at 1 μg/ml) is added to all of the experimental and the standard control samples before their undergoing solid-phase extraction/column elution. Duplicate, standard control tubes (2 ml) are also prepared containing; 0.1 M Na phosphate buffer, 50 μl of the internal standards D3 cocaine/BE/EME (1 μg/ml, each), 200 μl of normal mouse plasma and varying amounts of cocaine (1-500 ng) and used to generate the standard cocaine concentration curves. Similarly, standard concentration curves are also generated for BE and EME.

[6] = molecular target: anti-cocaine antibody (present antibodies); test: Competition assays with constant [3H]-cocaine and nonradioactive competitors at the antibody; conditions: competition with [3H]-cocaine at antibody; read-out: binding inhibition constant (Ki)
Text: as §1

[7] = mice, 5 min after i.v. cocaine, stoichiometric mAb dose

2E2: anti-cocaine mAb with human gamma heavy chain (SEQ ID NO: 2) and murine lambda light chain (SEQ ID NO: 1)
elimination t1/2 of 2E2 in blood ([1]; 120 mg/kg i.v. infusion, single compartment model): 194 h | initial blood concentration of mAb (mean±SEM) ([1]; 120 mg/kg i.v., 3 minutes after infusion, n=8): 370 ± 17 µg/mL | mean blood concentration of 2E2 ([1]; 120 mg/kg i.v., 24 hours after infusion): 422 ± 21 µg/mL | Kd [2]: 4 nM | effect of 2E2 dose on brain EME concentrations [3]: no systematic effect | effect on brain BE concentrations ([3]; 2E2 doses above 40 mg/kg): concomitant decrease | reduction in plasma EME concentrations ([3]; highest dose of 2E2): ~2 fold | increase in plasma BE concentrations ([3]; increasing doses of 2E2, plateau above 40 mg/kg): ~3 fold | brain cocaine concentration at highest mAb dose ([4]; mice, 360 mg/kg (3:1 mAb:drug), corrected for residual blood): negligible | increase in plasma cocaine concentrations ([4]; mice, 2E2 12 mg/kg (1:10 mAb:cocaine), 5 min): 5.1 fold | decrease in brain cocaine concentrations ([4]; mice, 2E2 24 mg/kg, 5 min): 35% | peak plasma cocaine concentration, presence vs absence of 2E2 ([4]; mice, 2E2 120 mg/kg): 11.3 fold | t1/2 of cocaine in plasma in the presence of mAb ([4]; mice, 2E2 120 mg/kg (equimolar), single compartment model): 17.1 min | peak plasma cocaine concentration in the presence of 2E2 ([4]; mice, 2E2 120 mg/kg, 45 sec after cocaine […] i.v.): ~1,100 ng/ml | peak brain cocaine concentration in the presence of 2E2 ([4]; mice, 2E2 120 mg/kg, earliest sample time): ~490 ng/g | elimination t1/2 of cocaine in brain in the presence of 2E2 ([4]; mice, 2E2 120 mg/kg, single compartment model): 3.8 min | increase in plasma cocaine concentrations ([4]; mice, 2E2 360 mg/kg (3:1 ratio), 5 min): 46.1 fold | decrease in brain cocaine concentration vs vehicle controls ([4]; mice, 5 min, Table 1): ~5 fold | increase in plasma cocaine concentration vs vehicle controls ([4]; mice, 5 min, Table 1): 29 fold | Change from vehicle (brain cocaine concentration) [4, 7]: −4.8-fold | Change from vehicle (plasma cocaine concentration) [4, 7]: +28.7-fold | Vdss of cocaine in the presence of mAb ([4]; mice, equimolar dose of 2E2): 0.2 L/kg | increase in plasma cocaine AUC ([4]; mouse, in vivo): 26 fold

CN1[C@H]2CC[C@@H]1[C@@H](C(=O)O)[C@@H](OC(=O)c1ccccc1)C2 [benzoylecgonine]
mean metabolite concentration in brain ([5]; mice, absence of 2E2): 16 ng/g | mean metabolite concentration in plasma ([5]; mice, absence of 2E2): 7 ng/mL | Ki [6]: 43 nM

CCOC(=O)[C@@H]1C2CCC(C[C@@H]1OC(=O)c1ccccc1)N2C (stereo partly shown) [cocaethylene]
Ki [6]: 3.4 nM

COC(=O)[C@H]1[C@@H](OC(=O)c2ccccc2)C[C@@H]2CC[C@H]1N2C [cocaine]
half-life ([5]; male, Swiss-Webster, mouse, brain, iv, […], t1/2 for entry (input) of cocaine into the brain, mice, absence of 2E2): 2 min | Vd ([5]; male, Swiss-Webster, mouse, plasma, iv, […]): 6 L/kg | half-life ([5]; male, Swiss-Webster, mouse, plasma, iv, […], plasma distribution half-life (t1/2α) of cocaine, mice, cocaine HCl […] i.v., absence of 2E2, two-compartment model): 1.9 min | half-life ([5]; male, Swiss-Webster, mouse, plasma, iv, […], plasma terminal elimination half-life (t1/2β) of cocaine, mice, cocaine HCl […] i.v., absence of 2E2, two-compartment model): 26.1 min | plasma terminal elimination half-life (t1/2β) of cocaine ([5]; mice, cocaine HCl […] i.v., absence of 2E2, two-compartment model): 26 min | brain t1/2α of cocaine ([5]; mice, i.v., absence of 2E2, two-compartment model): 2.0 min | highest measured brain cocaine concentration ([5]; mice, i.v., at 3 min, absence of 2E2): ~1,500 ng/g | highest plasma cocaine concentration ([5]; mice, i.v., earliest sample time (45 sec), absence of 2E2): ~110 ng/mL | brain t1/2β of cocaine ([5]; mouse, in vivo, iv): 14.5 min

COC(=O)[C@@H]1[C@H]2CC[C@@H](C[C@@H]1O)N2C [ecgonine methyl ester]
mean metabolite concentration in brain ([5]; mice, absence of 2E2): 267 ng/g | mean metabolite concentration in plasma ([5]; mice, absence of 2E2): 25 ng/mL | Ki [6]: 5200 nM

CN1[C@H]2CC[C@@H]1[C@@H](C(=O)O)[C@@H](O)C2 [ecogonine]
Ki [6]: 95000 nM
